Where two headings read alike, the source gives them in different places. Square brackets hold non-standard residues; d marks the D form. Ends that are not written are not given here. Peptide text beside a SMILES is read from it. hTyr = N[C@@H](CCc1ccc(O)cc1)C(=O)O
Assays:
[1] = Helical content by circular dichroism; format: physicochemical; details: 60 µM peptide, 50 mM sodium phosphate buffer pH 7.4, 25 °C, DichroWeb CDSSTR deconvolution
From the text: The conformation of synthesized peptides in aqueous solution was investigated by circular dichroism (CD) spectroscopy. […] The deconvolution of the CD spectra using DichroWeb[25] allowed us to estimate the helical population for each peptide, which is reported in Table 1. Overall, an excellent agreement was observed between the Agadir-computed values and the experimental helical population inferred from CD data. […] The introduction of a proline residue in peptide P5 has a strong destabilizing effect on helical conformation (17%) whereas Leu/hTyr substitution only led to a slight decrease of the helical content (P7 versus P6 and P10 versus P8).
Fig. 2 Far-UV CD spectra of synthesized peptides. […] CD measurements are reported as molar ellipticity per residue.
CD spectra were recorded on a Jasco J-815 CD spectropolarimeter equipped with a Peltier temperature controller. Data were obtained at 25 °C over a wavelength range between 185 nm and 270 nm, using a wavelength interval of 0.2 nm and a scan rate of 20 nm min^−1. Peptide samples were prepared at a concentration of 60 µM in 50 mM sodium phosphate buffer, pH 7.4, in a quartz cell of 1 mm path length. CD experiments were processed and plotted with R program. CD spectra were analyzed using DICHROWEB web server and CDSSTR deconvolution algorithm.

[2] = test system: SARS-CoV-2 clinical isolate SARS-CoV-2/PSL2020 in Calu-3 cells; details: clinical isolate /PSL2020 in Calu-3 cells, 48 h
[3] = test system: SARS-CoV-2 clinical isolate SARS-CoV-2/PSL2020 in Vero-E6 cells; details: for % Inhibition of SARSCoV-2 replication at 10 μM: mean of at least three independent experiments; for % Inhibition, Moyenne / % Inhibition, Q2 (Median): clinical isolate /PSL2020 in Vero-E6 cells, 48 h, 10 µM
Solubility (qualitative) = format: physicochemical; details: qualitative statement
[4] = HPLC retention time (LC-MS method B); format: physicochemical; details: method B: X-Select CSH C18 XP, 0.1% formic acid water/acetonitrile, 5-100% B in 3.2 min, 1.8 mL min^−1, 40 °C; used as indicator of hydrophobicity
Vero-E6 cells [5] = details: for toxicity in Vero-E6: MTT 0.1-10 µM and annexin-V/PI 10 µM, 24, 48 or 72 h (Fig. 3c)
Calu-3 cells [6] = details: 10 μM (150 times the IC50); MTT and annexin-V/PI, 24, 48 or 72 h (Fig. 3f)
Vero-E6 cells [7] = details: 10 µM
Calu-3 cells [8] = test system: Calu-3 cells
[9] = target: SARS-CoV-2 spike RBD (Fc-tagged 2019-nCoV RBD-SD1) (Severe acute respiratory syndrome coronavirus 2, UniProt P0DTC2); assay: biochemical; format: binding; details: for kon: read-out: ka, association constant; for koff: read-out: kdis, dissociation constant; for Kd: Table 1 of the earlier manuscript version, quoted by Reviewer #2, superseded
[10] = test system: SARS-CoV-2 clinical isolate SARS-CoV-2/PSL2020 in Calu-3 cells; format: cell-based; details: for efficacy in reducing SARS-CoV-2 viral titers: pulmonary cells, 1 µM
[11] = EXP1, peptide 10 µM, 24 h (0 µM: 16%)
[12] = EXP1, peptide 10 µM, 48 h (0 µM: 18%)
[13] = EXP1, peptide 10 µM, 72 h (0 µM: 23%)
[14] = EXP2, peptide 10 µM, 24 h (0 µM: 13%)
[15] = EXP2, peptide 10 µM, 48 h (0 µM: 17%)
[16] = EXP2, peptide 10 µM, 72 h (0 µM: 20%)
[17] = EXP3, peptide 10 µM, 24 h (Vehicle: 15%)
[18] = EXP3, peptide 10 µM, 48 h (Vehicle: 18%)
[19] = EXP3, peptide 10 µM, 72 h (Vehicle: 22%)
[20] = BLI EXP1, sample conc. ACE2 10 nM, P8 100 nM, P9 and P10 1000 nM
[21] = BLI EXP2, sample conc. ACE2 100 nM, P8 1000 nM, P9 and P10 1111 nM
[22] = BLI EXP3, sample conc. ACE2 100 nM, P9 10000 nM, P10 1000 nM

Compound | Experimental helical content% [1] [%] | IC50 [2] [nM] | % Inhibition, Moyenne [3] [%] | % Inhibition, Q2 (Median) [3] [%] | RT, HPLC retention time [4] | toxicity in Vero-E6 (Vero-E6 cells [5]) | cytotoxicity in uninfected Calu-3 cells (Calu-3 cells [6]) | Cell death (AnnV+PI) (Vero-E6 cells [7]; 24 h, EXP1, flow cytometry) [%] | Cell death (AnnV+PI) (Vero-E6 cells [7]; 24 h, EXP2, flow cytometry) [%] | Cell death (AnnV+PI) (Vero-E6 cells [7]; 24 h, EXP3, flow cytometry) [%] | Cell death (AnnV+PI) (Vero-E6 cells [7]; 48 h, EXP1, flow cytometry) [%] | Cell death (AnnV+PI) (Vero-E6 cells [7]; 48 h, EXP2, flow cytometry) [%] | Cell death (AnnV+PI) (Vero-E6 cells [7]; 48 h, EXP3, flow cytometry) [%] | Cell death (AnnV+PI) (Vero-E6 cells [7]; 72 h, EXP1, flow cytometry) [%] | Cell death (AnnV+PI) (Vero-E6 cells [7]; 72 h, EXP2, flow cytometry) [%] | Cell death (AnnV+PI) (Vero-E6 cells [7]; 72 h, EXP3, flow cytometry) [%] | Cell death (AnnV+PI) (Calu-3 cells [8]; [11]) [%] | Cell death (AnnV+PI) (Calu-3 cells [8]; [12]) [%] | Cell death (AnnV+PI) (Calu-3 cells [8]; [13]) [%] | Cell death (AnnV+PI) (Calu-3 cells [8]; [14]) [%] | further results
CC(C)C[C@H](NC(=O)[C@H](C)NC(=O)[C@H](CC(C)C)NC(=O)[C@H](C)NC(=O)[C@H](CC(C)C)NC(=O)[C@H](CCC(N)=O)NC(=O)[C@H](Cc1ccc(O)cc1)NC(=O)[C@H](CC(C)C)NC(=O)[C@H](CC(C)C)NC(=O)[C@H](CC(=O)O)NC(=O)[C@H](CCC(=O)O)NC(=O)[C@H](CC(C)C)NC(=O)[C@H](CCC(=O)O)NC(=O)[C@H](Cc1c[nH]cn1)NC(=O)[C@H](CC(C)C)NC(=O)[C@H](Cc1ccccc1)NC(=O)[C@H](CCCCN)NC(=O)[C@H](CC(=O)O)NC(=O)[C@H](CC(C)C)NC(=O)[C@H](Cc1ccccc1)NC(=O)[C@@H](NC(=O)[C@H](CCCCN)NC(=O)[C@H](CCc1ccc(O)cc1)NC(=O)[C@H](CCC(N)=O)NC(=O)[C@H](CCC(=O)O)NC(=O)[C@H](CCC(=O)O)NC(=O)[C@H](CC(C)C)NC(=O)[C@H](C)NC(=O)[C@@H](N)CO)[C@@H](C)O)C(N)=O [P7] (H-SALEEQ[hTyr]KTFLDKFLHELEDLLYQLALAL-NH2) | 63 | > 1000 | 53.7 | 43.4 | 2,57 min | – | – | – | – | – | – | – | – | – | – | – | – | – | – | – | % Inhibition of SARSCoV-2 replication at 10 μM [3]: 54%; solubility (Solubility (qualitative)): slight increase in solubility
CSCC[C@H](NC(=O)[C@H](Cc1ccccc1)NC(=O)[C@H](CCCCN)NC(=O)[C@H](CC(=O)O)NC(=O)[C@H](CC(C)C)NC(=O)[C@H](Cc1ccccc1)NC(=O)[C@@H](NC(=O)[C@H](CCCCN)NC(=O)[C@H](CCc1ccc(O)cc1)NC(=O)[C@H](CCC(N)=O)NC(=O)[C@H](CCC(=O)O)NC(=O)[C@H](CCC(=O)O)NC(=O)[C@H](CC(C)C)NC(=O)[C@H](C)NC(=O)[C@@H](N)CO)[C@@H](C)O)C(=O)N[C@@H](Cc1c[nH]cn1)C(=O)N[C@@H](CCC(=O)O)C(=O)N[C@@H](CC(C)C)C(=O)N[C@@H](CCC(=O)O)C(=O)N[C@@H](CC(=O)O)C(=O)N[C@@H](CC(C)C)C(=O)N[C@@H](CC(C)C)C(=O)N[C@@H](Cc1ccc(O)cc1)C(=O)N[C@@H](CCC(N)=O)C(=O)N[C@@H](CC(C)C)C(=O)N[C@@H](CO)C(=O)N[C@@H](CC(C)C)C(N)=O [P9] (H-SALEEQ[hTyr]KTFLDKFMHELEDLLYQLSL-NH2) | 53 | 53 | 94.5 | 94.5 | 2,31 min | devoid of toxicity | no cytotoxicity | 3.3 | 4.72 | 3.62 | 9 | 7 | 8 | 4.4 | 2.34 | 2.25 | 21 | 19 | 19 | 16 | Cell viability (MTT) (Vero-E6 cells [5]; 48 h, 10 µM): 95%; Cell death (AnnV+PI) (Calu-3 cells [8]; [15]): 19%; Cell death (AnnV+PI) (Calu-3 cells [8]; [16]): 23%; Cell death (AnnV+PI) (Calu-3 cells [8]; [17]): 20%; Cell death (AnnV+PI) (Calu-3 cells [8]; [18]): 20%; Cell death (AnnV+PI) (Calu-3 cells [8]; [19]): 22%; kon [9, 20]: 1020 M⁻¹ s⁻¹; koff [9, 20]: < 1e-07 s⁻¹; kon [9, 21]: 1100 M⁻¹ s⁻¹; koff [9, 21]: < 1e-07 s⁻¹; kon [9, 22]: 254 M⁻¹ s⁻¹; koff [9, 22]: < 1e-07 s⁻¹; Kd [9]: < 1 nM; SARSCoV-2 virus titer at 1 μM (PFU mL^−1) on Calu-3 [10]: 0 PFU mL^−1; efficacy in reducing SARS-CoV-2 viral titers [10]: 100%
CSCC[C@H](NC(=O)[C@H](Cc1ccccc1)NC(=O)[C@H](CCCCN)NC(=O)[C@H](CC(=O)O)NC(=O)[C@H](CC(C)C)NC(=O)[C@H](Cc1ccccc1)NC(=O)[C@@H](NC(=O)[C@H](CCCCN)NC(=O)[C@H](CCc1ccc(O)cc1)NC(=O)[C@H](CCC(N)=O)NC(=O)[C@H](CCC(=O)O)NC(=O)[C@H](CCC(=O)O)NC(=O)[C@H](CC(C)C)NC(=O)[C@H](C)NC(=O)[C@@H](N)CO)[C@@H](C)O)C(=O)N[C@@H](Cc1c[nH]cn1)C(=O)N[C@@H](CCC(=O)O)C(=O)N[C@@H](CC(C)C)C(=O)N[C@@H](CCC(=O)O)C(=O)N[C@@H](CC(=O)O)C(=O)N[C@@H](CC(C)C)C(=O)N[C@@H](CC(C)C)C(=O)N[C@@H](Cc1ccc(O)cc1)C(=O)N[C@@H](CCC(N)=O)C(=O)N[C@@H](CC(C)C)C(=O)N[C@@H](C)C(=O)N[C@@H](CC(C)C)C(N)=O [P10] (H-SALEEQ[hTyr]KTFLDKFMHELEDLLYQLAL-NH2) | 56 | 42 | 95.1 | 95.1 | 2,34 min | devoid of toxicity | no cytotoxicity | 4 | 5.38 | 5.49 | 7 | 5.69 | 6.33 | 4 | 2.55 | 3 | 23 | 19 | 23 | 17 | Cell viability (MTT) (Vero-E6 cells [5]; 72 h, 1 µM): 96%; % Inhibition of SARSCoV-2 replication at 10 μM [3]: 95%; Cell death (AnnV+PI) (Calu-3 cells [8]; [15]): 20%; Cell death (AnnV+PI) (Calu-3 cells [8]; [16]): 22%; Cell death (AnnV+PI) (Calu-3 cells [8]; [17]): 19%; Cell death (AnnV+PI) (Calu-3 cells [8]; [18]): 19%; Cell death (AnnV+PI) (Calu-3 cells [8]; [19]): 19%; kon [9, 20]: 2490 M⁻¹ s⁻¹; koff [9, 20]: < 1e-07 s⁻¹; kon [9, 21]: 1410 M⁻¹ s⁻¹; koff [9, 21]: < 1e-07 s⁻¹; kon [9, 22]: 1430 M⁻¹ s⁻¹; koff [9, 22]: < 1e-07 s⁻¹; Kd [9]: < 1 nM; SARSCoV-2 virus titer at 1 μM (PFU mL^−1) on Calu-3 [10]: 0 PFU mL^−1; efficacy in reducing SARS-CoV-2 viral titers [10]: 100%
SALEEQLKTFLDKFMHELEDLLYQLAL-NH2 [P8] | 70 | 46 | – | – | 2,45 min | devoid of toxicity | no cytotoxicity | 3.74 | 3.24 | 5 | 5.63 | 4.63 | 4.26 | 4 | 3 | 3.48 | 23 | 20 | 18 | 16 | Cell viability (MTT) (Vero-E6 cells [5]; 72 h, 0.1 µM): 98%; solubility (Solubility (qualitative)): highly soluble; Cell death (AnnV+PI) (Calu-3 cells [8]; [15]): 19%; Cell death (AnnV+PI) (Calu-3 cells [8]; [16]): 22%; Cell death (AnnV+PI) (Calu-3 cells [8]; [17]): 23%; Cell death (AnnV+PI) (Calu-3 cells [8]; [18]): 20%; Cell death (AnnV+PI) (Calu-3 cells [8]; [19]): 18%; kon [9, 20]: 5610 M⁻¹ s⁻¹; koff [9, 20]: 8.94e-05 s⁻¹; kon [9, 21]: 4310 M⁻¹ s⁻¹; koff [9, 21]: 0.000137 s⁻¹; SARSCoV-2 virus titer at 1 μM (PFU mL^−1) on Calu-3 [10]: 0 PFU mL^−1

From PMC7881012, “Human ACE2 peptide-mimics block SARS-CoV-2 pulmonary cells infection” (Communications Biology, 2021)
